Experimental data reported in ChEMBL document CHEMBL5331101, “Synthesis and evaluation of N-sulfonylpiperidine-3-carboxamide derivatives as capsid assembly modulators inhibiting HBV in vitro and in HBV-transgenic mice” (Eur J Med Chem, 2023).
The source made the active and inactive calls. The rule behind the calls is not given here.

Assays:
Hepatitis B virus [1] = assay: Antiviral activity against HBV infected in human HePAD38 assessed as reduction on HBsAg level at 20 uM by ELISA analysis relative to control; type: functional; set-up: scale not given: the % may be the effect or the level left
Hepatitis B virus [2] = assay: Antiviral activity against HBV infected in human HePAD38 assessed as reduction on HBeAg level at 20 uM by ELISA analysis relative to control; type: functional; set-up: scale not given: the % may be the effect or the level left
Hepatitis B virus [3] = assay: Antiviral activity against HBV infected in human HePAD38 cells assessed as reduction in intracellular core HBV DNA level at 20 uM incubated for 6 days by qPCR analysis relative to control; type: functional; set-up: scale not given: the % may be the effect or the level left; conditions: time 6 day
[4] = Selectivity index, ratio of CC50 for cytotoxicity against human HepAD38 cells to EC50 for antiviral activity against HBV infected in human HePAD38 cells; type: toxicity, cell-based; conditions: read-out: Ratio CC50/EC50
[5] = Cytotoxicity against human HepAD38 cells assessed as reduction in cell viability incubated for 6 days by CCK-8 assay; type: functional; conditions: HePAD38, 144 h, time 6 day
Hepatitis B virus [6] = assay: Antiviral activity against HBV infected in human HePAD38 cells assessed as decay of viral core protein by agarose gel electrophoresis-based assay; type: functional, organism-based
Hepatitis B virus [7] = assay: Antiviral activity against HBV infected in human HePAD38 cells assessed as reduction of capsid associated HBV DNA; type: functional, organism-based
Hepatitis B virus [8] = assay: Antiviral activity against HBV infected in human HePAD38 cells assessed as decay of viral capsid protein by agarose gel electrophoresis-based assay; type: functional, organism-based
[9] = molecular target: Core antigen (Hepatitis B virus) (UniProt Q03732); assay: Modulation of capsid assembly in HBV infected in human HePAD38 cells assessed as inhibition of viral DNA replication at 5 uM incubated for 3 to 7 days by electron microscopic analysis; type: cell-based; conditions: filed as modulator, time 3-7 day
Sequence of Core antigen (Hepatitis B virus) (Q03732 as listed by the source): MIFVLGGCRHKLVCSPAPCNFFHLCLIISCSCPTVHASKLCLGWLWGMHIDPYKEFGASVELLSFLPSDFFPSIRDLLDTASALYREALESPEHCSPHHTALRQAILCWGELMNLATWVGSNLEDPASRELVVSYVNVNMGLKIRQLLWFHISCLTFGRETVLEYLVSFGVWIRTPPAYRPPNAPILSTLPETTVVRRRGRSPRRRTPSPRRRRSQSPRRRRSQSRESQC

Hepatitis B virus [10] = assay: Antiviral activity against HBV infected in human HePAD38 cells assessed as reduction in capsid formation at 2 uM measured for 6 days by agarose gel electrophoresis-based assay; type: functional, organism-based; conditions: time 6.0 day
Hepatitis B virus [11] = assay: Antiviral activity against HBV infected in human HePAD38 assessed as reduction on HBsAg level at 2 uM by ELISA analysis relative to control; type: functional; set-up: scale not given: the % may be the effect or the level left
Hepatitis B virus [12] = assay: Antiviral activity against HBV infected in human HePAD38 cells assessed as reduction in intracellular core HBV DNA level at 2 uM incubated for 6 days by qPCR analysis relative to control; type: functional; set-up: scale not given: the % may be the effect or the level left; conditions: time 6 day
Hepatitis B virus [13] = assay: Antiviral activity against HBV infected in human HePAD38 assessed as reduction on HBeAg level at 2 uM by ELISA analysis relative to control; type: functional; set-up: scale not given: the % may be the effect or the level left
Hepatitis B virus [14] = assay: Antiviral activity against wild type HBV infected in human HepG2 cells assessed as inhibition of viral replication; type: functional, organism-based
Hepatitis B virus [15] = assay: Antiviral activity against HBV infected in human HePAD38 cells assessed as reduction in intracellular core HBV DNA level at 25 nM incubated for 6 days by qPCR analysis relative to control; type: functional; set-up: scale not given: the % may be the effect or the level left; conditions: time 6 day
Hepatitis B virus [16] = assay: Antiviral activity against ETV-resistant HBV infected in human HepG2 cells assessed as inhibition of viral replication; type: functional, organism-based
Hepatitis B virus [17] = assay: Antiviral activity against HBV infected in human HePAD38 assessed as reduction on HBeAg level at 25 nM by ELISA analysis relative to control; type: functional; set-up: scale not given: the % may be the effect or the level left
Hepatitis B virus [18] = assay: Antiviral activity against HBV infected in human HePAD38 assessed as reduction on HBsAg level at 25 nM by ELISA analysis relative to control; type: functional; set-up: scale not given: the % may be the effect or the level left
Hepatitis B virus [19] = assay: Antiviral activity against HBV infected in human HePAD38 assessed as reduction on HBsAg level at 5 uM by ELISA analysis relative to control; type: functional; set-up: scale not given: the % may be the effect or the level left
Hepatitis B virus [20] = assay: Antiviral activity against HBV infected in human HepAD38 cells assessed as effect on capsid morphology at 20 uM incubated for 3 to 7 days by transmission electron microscopy; type: functional, organism-based; conditions: time 3-7 day
Hepatitis B virus [21] = assay: Antiviral activity against HBV infected in human HePAD38 cells assessed as reduction in intracellular core HBV DNA level at 5 uM incubated for 6 days by qPCR analysis relative to control; type: functional; set-up: scale not given: the % may be the effect or the level left; conditions: time 6 day
Hepatitis B virus [22] = assay: Antiviral activity against HBV infected in human HePAD38 assessed as reduction on HBeAg level at 5 uM by ELISA analysis relative to control; type: functional; set-up: scale not given: the % may be the effect or the level left

| Structure (SMILES) | Activity (Hepatitis B virus [1]) | Activity (Hepatitis B virus [2]) | Activity (Hepatitis B virus [3]) | selectivity ratio [4] | CC50 [5] | Activity (Hepatitis B virus [6]) | EC50 (Hepatitis B virus [7]) | Activity (Hepatitis B virus [8]) | other results |
| --- | --- | --- | --- | --- | --- | --- | --- | --- | --- |
| CCOC(=O)c1c(S(=O)(=O)N2CCCC(C(=O)Nc3ccc(F)cc3)C2)c(C)n(C)c1C (stereo not drawn) | 86.6% | 62.4% | 53.4% |  |  |  |  |  |  |
| CCOC(=O)c1c(S(=O)(=O)N2CCCC(C(=O)Nc3ccc(F)c(Cl)c3)C2)c(C)n(CC)c1C (stereo not drawn) | 98.2% | 66% | 44.2% |  |  |  |  |  |  |
| CCOC(=O)c1c(S(=O)(=O)N2CCCC(C(=O)Nc3ccc(F)c(F)c3)C2)c(C)n(C)c1C (stereo not drawn) | 96% | 27.2% | 11.5% | > 192 | > 100000 nM | Active | 520 nM | Active |  |
| CCOC(=O)c1c(S(=O)(=O)N2CCCC(C(=O)Nc3ccc(F)cc3F)C2)c(C)n(C)c1C (stereo not drawn) | 93.5% | 54% | 44.9% |  |  |  |  |  |  |
| CCOC(=O)c1c(S(=O)(=O)N2CCC[C@H](C(=O)Nc3ccc(F)c(C)c3)C2)c(C)n(C2CC2)c1C | 91.6% | 41.6% | 7.7% | > 17 | > 100000 nM | inactive | 5870 nM | inactive |  |
| COC(=O)c1c(S(=O)(=O)N2CCC[C@H](C(=O)Nc3ccc(F)c(C)c3)C2)c(C)n(C(F)F)c1C | 92.8% | 37.9% | 9.6% | 179 | 59200 nM | inactive | 330 nM | inactive |  |
| COC(=O)c1c(C)[nH]c(C)c1S(=O)(=O)N1CCC[C@H](C(=O)Nc2ccc(F)c(C)c2)C1 | 106.1% | 73.2% | 3.7% |  |  |  |  |  |  |
| COC(=O)c1c(S(=O)(=O)N2CCO[C@H](C(=O)Nc3ccc(F)c(C)c3)C2)c(C)n(C)c1C | 88.2% | 59% | 39% |  |  |  |  |  |  |
| Cc1c(C#N)c(S(=O)(=O)N2CCC[C@H](C(=O)Nc3ccc(F)c(Cl)c3)C2)c(C)n1C | 99.8% | 36% | 11.1% | > 22.7 | > 100000 nM | inactive | 4410 nM | inactive |  |
| COC(=O)c1c(S(=O)(=O)N2CCC[C@H](C(=O)Nc3ccc(F)c(Cl)c3)C2)c(C)n(C)c1C | 94% | 67.4% | 39.7% |  |  |  |  |  |  |
| COC(=O)c1c(S(=O)(=O)N2CCC[C@H](C(=O)Nc3ccc(F)c(C)c3)C2)c(C)n(CC(C)=O)c1C | 92.8% | 49.4% | 38.2% |  |  |  |  |  |  |
| COC(=O)c1c(S(=O)(=O)N2CCC[C@H](C(=O)Nc3ccc(F)c(C)c3)C2)c(C)n(C)c1C | 97.3% | 54.6% | 29.8% |  |  |  |  |  |  |
| COC(=O)C1=C(C)NC(c2ncc(F)cc2F)=N[C@H]1c1ccc(F)cc1Cl |  |  |  |  | > 20000 nM | Active | 50 nM | Active | Activity [9]: Active; Activity (Hepatitis B virus [10]): Active; Activity (Hepatitis B virus [11]): 88.5%; Activity (Hepatitis B virus [12]): 4.9%; Activity (Hepatitis B virus [13]): 31.8% |
| CCOC(=O)c1c(S(=O)(=O)N2CCCC(C(=O)Nc3ccc(F)c(Cl)c3)C2)c(C)n(C)c1C (stereo not drawn) | 94.4% | 27.1% | 11.8% |  |  | Active |  | Active |  |
| COC(=O)c1c(S(=O)(=O)N2CCC[C@H](C(=O)Nc3ccc(F)c(C#N)c3)C2)c(C)n(C)c1C | 92.4% | 61.9% | 29.7% |  |  |  |  |  |  |
| COC(=O)c1c(S(=O)(=O)N2CCC[C@@H](C(=O)Nc3ccc(F)c(C)c3)C2)c(C)n(C)c1C | 100.5% | 62.2% | 34.9% |  |  |  |  |  |  |
| C=C1[C@H](CO)[C@@H](O)C[C@@H]1n1cnc2c(=O)[nH]c(N)nc21 [ENTECAVIR ANHYDROUS] |  |  |  | > 155 | > 500 nM |  | 3 nM |  | EC50 (Hepatitis B virus [14]): 270 nM; Activity (Hepatitis B virus [15]): 3.1%; EC50 (Hepatitis B virus [16]): 340 nM; Activity (Hepatitis B virus [17]): 93.4%; Activity (Hepatitis B virus [18]): 93.7% |
| Cc1cc(NC(=O)c2cccc(S(=O)(=O)N[C@H]3CCOC3)c2)ccc1F |  |  |  | > 370 | > 100000 nM | inactive | 270 nM | inactive | Activity (Hepatitis B virus [19]): 97%; Activity (Hepatitis B virus [20]): inactive; Activity (Hepatitis B virus [21]): 5.8%; Activity (Hepatitis B virus [22]): 36.1% |
